Data reported in the OligoGym collection.
HELM strings list units from the 5' end as sugar, base in round brackets, then linkage (d deoxyribose, r ribose, m 2'-O-methyl, p phosphodiester). Strings are as the collection lists them; they lack the last nucleoside at the 3' end of the tested compound. [moe] = 2'-O-(2-methoxyethyl) (MOE); [sp] = phosphorothioate linkage; [m5C] = 5-methylcytosine

Target: GFAP
Test: mouse, dose not given
Details: ASO

Substance	3 h FOB score [score 0-7]
RNA1{[moe](G)[sp].[moe](T)p.[moe](G)p.[moe](T)p.[moe](G)[sp].d(T)[sp].d(A)[sp].d(T)[sp].d(T)[sp].d(A)[sp].d(G)[sp].d(G)[sp].d(A)[sp].[moe](T)p.[moe]([m5C])p.[moe]([m5C])[sp].[moe]([m5C])}$$$$ (last 3' nucleoside missing)	3
RNA1{[moe](T)[sp].[moe](T)p.[moe](A)p.[moe](T)p.[moe](T)[sp].d(T)[sp].d(T)[sp].d(T)[sp].d([m5C])[sp].d([m5C])[sp].d(T)[sp].d([m5C])[sp].d(A)[sp].[moe](G)p.[moe]([m5C])p.[moe](G)[sp].[moe](A)}$$$$ (last 3' nucleoside missing)	0
RNA1{[moe](T)[sp].[moe](G)p.[moe]([m5C])p.[moe]([m5C])p.[moe](A)p.d(T)[sp].d(T)[sp].d(T)[sp].d(A)[sp].d(T)[sp].d([m5C])[sp].d(T)[sp].d(G)[sp].d(T)[sp].d(G)[sp].[moe]([m5C])p.[moe](T)p.[moe](T)[sp].[moe](T)}$$$$ (last 3' nucleoside missing)	1
RNA1{[moe](T)[sp].[moe](G)p.[moe](T)p.[moe](A)p.[moe](T)p.d(T)[sp].d(A)[sp].d(G)[sp].d(G)[sp].d(A)[sp].d(T)[sp].d([m5C])[sp].d([m5C])[sp].d([m5C])[sp].d(A)[sp].[moe](T)p.[moe]([m5C])p.[moe](T)[sp].[moe](A)}$$$$ (last 3' nucleoside missing)	4
RNA1{[moe](T)[sp].[moe](T)p.[moe](T)p.[moe](T)p.[moe](G)[sp].d(T)[sp].d(G)[sp].d(T)[sp].d(G)[sp].d(T)[sp].d(G)[sp].d(A)[sp].d(G)[sp].d(T)[sp].d(A)[sp].[moe](A)p.[moe](G)p.[moe](A)[sp].[moe](A)}$$$$ (last 3' nucleoside missing)	7
RNA1{[moe](A)[sp].[moe]([m5C])p.[moe](A)p.[moe](T)p.[moe](T)p.[moe]([m5C])p.d(A)[sp].d([m5C])[sp].d(T)[sp].d(A)[sp].d(A)[sp].d(T)[sp].d(A)[sp].d(T)[sp].d(T)[sp].d(T)[sp].[moe](A)p.[moe](A)[sp].[moe]([m5C])}$$$$ (last 3' nucleoside missing)	0
RNA1{[moe](T)[sp].[moe](G)p.[moe](A)p.[moe](G)p.[moe](T)[sp].d(T)[sp].d(T)[sp].d([m5C])[sp].d(T)[sp].d(T)[sp].d(G)[sp].d(T)[sp].d(T)[sp].d(A)[sp].d(G)[sp].[moe](T)p.[moe](T)p.[moe](G)[sp].[moe](G)}$$$$ (last 3' nucleoside missing)	6
RNA1{[moe]([m5C])[sp].[moe](A)p.[moe](G)p.[moe](T)p.[moe](A)p.d(T)[sp].d(T)[sp].d(A)[sp].d([m5C])[sp].d([m5C])[sp].d(T)[sp].d([m5C])[sp].d(T)[sp].d(A)[sp].d([m5C])[sp].[moe](T)p.[moe](A)p.[moe](G)[sp].[moe](T)}$$$$ (last 3' nucleoside missing)	0
RNA1{[moe](T)[sp].[moe]([m5C])p.[moe](A)p.[moe](G)p.d([m5C])[sp].d([m5C])[sp].d(T)[sp].d(G)[sp].d(G)[sp].d(T)[sp].d(T)[sp].d(A)[sp].d(G)[sp].d([m5C])[sp].[moe]([m5C])p.[moe](T)p.[moe](T)p.[moe](T)[sp].[moe]([m5C])}$$$$ (last 3' nucleoside missing)	4
RNA1{[moe]([m5C])[sp].[moe](T)p.[moe]([m5C])p.[moe]([m5C])p.[moe](T)[sp].d(G)[sp].d(T)[sp].d(T)[sp].d(T)[sp].d([m5C])[sp].d(A)[sp].d(G)[sp].d([m5C])[sp].d(A)[sp].d(T)[sp].[moe]([m5C])p.[moe](T)p.[moe](T)[sp].[moe]([m5C])}$$$$ (last 3' nucleoside missing)	2
RNA1{[moe](G)[sp].[moe]([m5C])p.[moe](G)p.[moe](A)p.[moe](G)[sp].d([m5C])[sp].d(G)[sp].d(G)[sp].d(A)[sp].d(G)[sp].d(G)[sp].d([m5C])[sp].d([m5C])[sp].d(T)[sp].d(G)[sp].[moe](G)p.[moe](G)p.[moe](T)[sp].[moe](G)}$$$$ (last 3' nucleoside missing)	6
RNA1{[moe](G)[sp].[moe](G)p.[moe](T)p.[moe](G)p.[moe]([m5C])[sp].d(T)[sp].d(T)[sp].d(T)[sp].d(T)[sp].d(G)[sp].d([m5C])[sp].d([m5C])[sp].d([m5C])[sp].d([m5C])[sp].d([m5C])[sp].[moe](T)p.[moe]([m5C])p.[moe](G)[sp].[moe](A)}$$$$ (last 3' nucleoside missing)	1
RNA1{[moe](G)[sp].[moe](T)p.[moe](G)p.[moe](A)p.[moe](G)[sp].d(T)[sp].d(T)[sp].d(T)[sp].d([m5C])[sp].d(T)[sp].d(T)[sp].d(G)[sp].d(T)[sp].d(T)[sp].d(A)[sp].[moe](G)p.[moe](T)p.[moe](T)[sp].[moe](G)}$$$$ (last 3' nucleoside missing)	7
RNA1{[moe]([m5C])[sp].[moe](T)p.[moe](G)p.[moe]([m5C])p.[moe]([m5C])p.d(A)[sp].d(T)[sp].d(T)[sp].d(T)[sp].d(A)[sp].d(T)[sp].d([m5C])[sp].d(T)[sp].d(G)[sp].d(T)[sp].[moe](G)p.[moe]([m5C])p.[moe](T)[sp].[moe](T)}$$$$ (last 3' nucleoside missing)	2
RNA1{[moe](T)[sp].[moe](G)p.[moe](T)p.[moe]([m5C])p.d(T)[sp].d(T)[sp].d(T)[sp].d(A)[sp].d(T)[sp].d(T)[sp].d(T)[sp].d(T)[sp].d(T)[sp].d([m5C])[sp].[moe]([m5C])p.[moe](T)p.[moe]([m5C])p.[moe](A)[sp].[moe](G)}$$$$ (last 3' nucleoside missing)	2
RNA1{[moe](T)[sp].[moe](T)p.[moe](T)p.[moe]([m5C])p.[moe](T)[sp].d([m5C])[sp].d(T)[sp].d([m5C])[sp].d([m5C])[sp].d(T)[sp].d(G)[sp].d(T)[sp].d(T)[sp].d(T)[sp].d([m5C])[sp].[moe](A)p.[moe](G)p.[moe]([m5C])[sp].[moe](A)}$$$$ (last 3' nucleoside missing)	3
RNA1{[moe](G)[sp].[moe](T)p.[moe](A)p.[moe]([m5C])p.[moe]([m5C])[sp].d([m5C])[sp].d(T)[sp].d(G)[sp].d(G)[sp].d(T)[sp].d(A)[sp].d(T)[sp].d(G)[sp].d(A)[sp].d(T)[sp].[moe](A)p.[moe](G)p.[moe](G)[sp].[moe]([m5C])}$$$$ (last 3' nucleoside missing)	6
RNA1{[moe](T)[sp].[moe](G)p.[moe](G)p.[moe]([m5C])p.[moe](A)p.[moe](G)p.d(T)[sp].d(A)[sp].d(T)[sp].d(T)[sp].d(A)[sp].d([m5C])[sp].d([m5C])[sp].d(T)[sp].d([m5C])[sp].d(T)[sp].[moe](A)p.[moe]([m5C])[sp].[moe](T)}$$$$ (last 3' nucleoside missing)	0
RNA1{[moe]([m5C])[sp].[moe](T)p.[moe](G)p.[moe]([m5C])p.[moe]([m5C])[sp].d(A)[sp].d(T)[sp].d(T)[sp].d(T)[sp].d(A)[sp].d(T)[sp].d([m5C])[sp].d(T)[sp].[moe](G)p.[moe](T)p.[moe](G)[sp].[moe]([m5C])}$$$$ (last 3' nucleoside missing)	1
